Measured values from PMC12055592, “Post-symptomatic NLRP3 inhibition rescues cognitive impairment and mitigates amyloid and tau driven neurodegeneration” (Npj Dementia, 2025).

Legend:
AIM2 = AIM2 in vitro selectivity assay (THP1-KO-NLRP3 cells, Poly(dA:dT), IL-1β); type: cell-based; conditions: n = 2; top concentration 50 µM
Procedure: THP1-KO-NLRP3 cells (Invivogen, San Diego, CA), resuspended in RPMI 1640 (Thermo Fisher Scientific) supplemented with 25 mM HEPES (Thermo Fisher Scientific), 10% FBS (Thermo Fisher Scientific) and 1% Penicillin-Streptomycin (Thermo Fisher Scientific), were seeded at 75,000 cells/well in a 96-well cell culture plate and treated with 50 ng/ml Phorbol 12-myristate 13-acetate (PMA, Millipore) for 24 h at 37 °C with 5% CO2. The next day, the media was replaced with fresh media containing 2.2% FBS, and cells were pretreated for 60 min with VEN-02XX (top concentration 50 µM; 5-fold titration) before DNA transfection. Lipofectamine 2000 (Thermo Fisher Scientific), for a final concentration of 2 µg/ml, and Poly(dA:dT) (Invivogen), for a final concentration of 1 µg/ml, were mixed together in OptiMEM (Thermo Fisher Scientific) 5 min before their addition to the cells. After a 24-h incubation at 37 °C with 5% CO2, supernatants were collected and IL-1β levels determined in an electrochemiluminescence immunoassay (Mesoscale Discovery).

[1] = tested on: TNFα in iPSC-derived microglia; experiment: iPSC-derived microglia in vitro assay, secreted TNFα (specificity); type: cell-based; conditions: for IC50: Microglia
Procedure: iPSC-derived microglia (BX-0900, BrainXell, Madison, WI) were thawed and recovered as per the supplier’s instructions. Briefly, viable cells were counted post-thaw using Trypan Blue, 0.4% (Thermo Fisher Scientific) and 25,000 cells were seeded on poly-d-lysine coated 96-well plates in DMEM-F/12 medium (Thermo Fisher Scientific) supplemented with 1X B-27 supplement (Thermo Fisher Scientific), 1X N-2 supplement (Thermo Fisher Scientific), 1X Non-essential amino acids (Thermo Fisher Scientific), 1X Chemically defined lipid mix (Thermo Fisher Scientific), 1 mM GlutaMax (Thermo Fisher Scientific), 0.2 mM Ascorbic Acid (Millipore), 100 ng/mL IL-34 (PeproTech, Cranbury, NJ), 2 ng/mL TGF-β1 (PeproTech) and 20 ng/mL M-CSF (PeproTech). Fresh media was added 3 days after seeding, half of which was replenished with fresh media 6 days following seeding. The assay was performed 7 days after cells were seeded in 96-well plates. Two assay protocol variations were performed: cells were either pre-treated with VEN-02XX to block NLRP3 inflammasome formation and then primed with LPS (Fig. 1, D. Compound added before LPS priming) or were primed with LPS and then treated with VEN-02XX (Fig. 1, D. Compound added after LPS priming). For compound treatment, cells were treated with VEN-02XX for 1 h (top concentration 100 µM; 3-fold titration) to block NLRP3 inflammasome formation. For LPS priming, cells were primed with 100 ng/mL LPS (E.coli O26:B6, Millipore) for 4 h. At the end of either protocol, cells were stimulated with 10 uM Nigericin (Millipore) for 1 h, after which conditioned media was collected for analysis of secreted IL-1β, IL-18 and TNFα in an electrochemiluminescence immunoassay (Mesoscale Discovery).

[2] = tested on: NLRP3 inflammasome, IL-1β release in mouse whole blood; experiment: Mouse whole-blood in vitro assay (LPS, ATP, secreted IL-1β); type: cell-based
Procedure: Blood was collected from CD1 female mice in lithium-Heparin tubes (Sarstedt, Numbrecht, Germany). Freshly collected blood was distributed in each well of a 96-well round-bottom cell culture plate (Corning Life Sciences, Tewksbury, MA). Blood was primed with 1 µg/ml Lipopolysaccharide (LPS) (E. coli O26:B6, Millipore, Burlington, MA) for 4.5 h, incubated at 37 °C with 5% CO2. Following LPS priming, blood was incubated with VEN-02XX pre-diluted in HBSS (Thermo Fisher Scientific, Waltham, MA) with 2% DMSO, for 30 min (top concentration 25 µM; 3-fold titration). Following drug incubation, blood was stimulated with 5 mM ATP (Millipore) for an additional 30 min at 37 °C with 5% CO2 under continuous shaking (450 RPM), after which conditioned media was collected for analysis of secreted IL-1β in an electrochemiluminescence immunoassay (Mesoscale Discovery).

5XFAD/Rubicon KO mice = experiment: Brain immunohistochemistry (Iba1, Aβ, pTau S396, NeuN) in 5XFAD/Rubicon KO mice; type: in vivo, mouse; conditions: 9 weeks PO QD
Procedure: 5XFAD/Rubicon KO mice received vehicle (0.5% w/v methylcellulose/0.1% w/v Tween® 80 in water) or VEN-02XX (0.01, 1, or 20 mg/kg) every day by oral gastric gavage for 9 weeks.
Following post-mortem collection, the brain was placed in a mouse brain matrix and sliced along the sagittal suture to separate the hemispheres. The left hemisphere was immediately processed for downstream biochemical analyses by snap freezing in liquid nitrogen. The right half was drop-fixed in 4% PFA in PBS for 24 h and then washed 5x in fresh PBS before being submerged in 30% sucrose cryoprotectant solution for 24 h. After 24 h, brains were frozen in cryomolds in a 2:1 mixture of 30% sucrose and optimal cutting temperature compound (OCT), cryomolds were stored at −80 °C until use. For slide preparation, brains were allowed to acclimatize to −20 °C in a Thermo Shandon cryotome. After equilibration at −20 °C, tissue was cryostat sectioned at 25 μm (cortex) or 40 μm (free floating sections for hippocampus). Steam-mediated antigen retrieval was performed using 1x citrate buffer. Sections were rinsed in PBS, blocked in 3% bovine serum albumin/0.2% Triton X-100/PBS for 1 h, and incubated with primary antibodies in blocking buffer overnight at 4 °C (1:200 goat anti-Iba1 [Novus Biologicals, Centennial, CO], 1:500 mouse anti-Aβ 82E1 MOAB [Immuno-Biological Laboratories, Inc., Spring Lake Park, MN], 1:200 rabbit anti-pTau S396 [Cell Signaling, Danvers, MA], 1:200 mouse anti-NeuN [Cell Signaling]). Sections were incubated with appropriate secondary antibodies (Jackson ImmunoResearch, West Grove, PA) for 1 h at room temperature. For the complete list of antibodies please reference Supplementary Table 2. ProLong™ Diamond or ProLong™ Gold Antifade Mountant with or without 4’,6-diamidino-2-phenylindole (DAPI) counterstain (Thermo Fisher Scientific, Waltham, MA). Slides were imaged on a Zeiss Axio-observer A1 inverted microscope with an Andor iXon EMCCD camera and X-Cite LED fluorescence unit. Image analysis was performed using Fiji and 3DMorph AnalyzeSkeleton for microglial analyses.

With `CC(C)(O)CNc1nnc(-c2ccc(Cl)cc2C(F)(F)F)c2ccncc12` [VEN-02XX] the “block of IL-1β release downstream of AIM2” value (AIM2) was “inability to block IL-1β release”, the IC50 ([1]; compound added after LPS priming) was > 10 µM and the IC50 ([1]; compound added before LPS priming) was > 30 µM. The “TNFα inhibition in cellular assay” value ([1]; specificity, in words) was “lack of TNFα inhibition”, the IC50 ([2]; Mus musculus, IL-1β, geometric mean, n = 3) was 0.44 µM and the “potency of NLRP3 inhibition in whole blood” value ([2]; in words) was “sub-micromolar potency”. For the same compound, the microglial branch length (5XFAD/Rubicon KO mice; 20 mg/kg, 3DMorph) was “significant increases in microglial branch length”, the “pTau S396 signal” value (5XFAD/Rubicon KO mice; 20 mg/kg, cortex and CA3 region of hippocampus) was “almost complete suppression in pTau signal” and the “microglia/plaque association (co-localization of Iba1 with amyloid)” value (5XFAD/Rubicon KO mice) was “robust disassociation of the microglia from the Aβ plaques”. For the same compound, the microglial soma volume (5XFAD/Rubicon KO mice; 3DMorph) was “commensurate decreases in soma volume in a dose-dependent and statistically significant manner”, the gross microglial morphology (5XFAD/Rubicon KO mice; Iba1 staining) was “transition from the disease-associated active ameboid morphology towards a homeostatic ramified morphology” and the “CA3 and dentate gyrus thickness” value (5XFAD/Rubicon KO mice; NeuN stained sections) was “significantly increased both CA3 and dentate gyrus (DG) thickness”. The “phosphorylated tau (pTau S396) mean area” value (5XFAD/Rubicon KO mice; cortex and CA3 region of hippocampus) was “dose-dependent and statistically significant reduction in phosphorylated tau”, the “Iba1 mean area (microglial activation)” value (5XFAD/Rubicon KO mice; cortex and hippocampus) was “reduced the cumulative signal of the key microglial activation marker, Iba1, in both the cortex and hippocampus in a dose-dependent and statistically significant manner” and the “NeuN+ cell count (neuronal numbers)” value (5XFAD/Rubicon KO mice; cortex and hippocampus) was “robust dose-dependent and statistically significant neuroprotective effect”. For the same compound, the Aβ plaque area/size (5XFAD/Rubicon KO mice; cortex and hippocampus, especially at higher doses) was “significant reduction in Aβ plaque area/size in both the cortex and hippocampus in a dose-dependent manner” and the “Aβ plaque burden (cumulative plaque #)” value (5XFAD/Rubicon KO mice; cortex and hippocampus, did not reach statistical significance) was “trending reduction in Aβ plaque burden”.
